Measurements published in patent publication US20240117431A1, “STEM-CELL BASED BIOMARKER DISCOVERY” (THE REGENTS OF THE UNIVERSITY OF CALIFORNIA, priority 2020, published 2024).

Legend:
mutants TgUPRT = assay: Phosphoribosyltransferase activity with recombinant TgUPRT mutants; assay type: biochemical, Toxoplasma gondii; conditions: five recombinant TgUPRT mutants, FIG. 9A
Experimental: Enzyme activity assay: The standard activity assay was performed by incubating 10 μL of free extract or 0.5 μg of pure His-tag enzyme with 1 mM Phosphoribosyl pyrophosphate (PRPP), 1 mM uracil, 5 mM MgCl2 in 50 mM PBS buffer pH 7.4 in a final volume of 80 μL. The reaction mixture was incubated at 37° C. for 2-5 min (300 rpm). Enzyme was inactivated by adding 80 μL of cold methanol in ice-bath and heating for 5 min at 100° C. After centrifugation at 9000×g for 5 min, samples were half-diluted with water and the NMP production was analysed by HPLC to quantitatively measure the reaction products as described below in the analytical methods. All determinations were carried out in triplicate assuming Michaelis-Menten conditions, and the maximum error was below 5%. In such conditions, one international activity unit (IU) was defined as the amount of enzyme producing 1 μmol/min of UMP under the assay conditions.
Substrate specificity studies Enzymatic synthesis of the different pyrimidine nucleoside monophosphate (NMP) derivatives was carried out by incubating 0.5 μg of pure His-tag enzyme with 1 mM PRPP, 1 mM pyrimidine base and 5 mM MgCl2 in 50 mM PBS buffer pH 7.4 (1.6-3.2% v/v DSMO). The experiments were performed according to the standard assay. Subsequently, the reaction mixture was processed as described above and the NMP production was analyzed by HPLC.
Analytical methods: The production of NMPs was quantitatively measured with an ACE EXCEL 5 μm CN-ES 250×4.6 mm equilibrated with 100% trimethyl ammonium acetate at a flow rate of 0.8 mL/min. Retention times for the reference bases and NMPs (hereafter abbreviated according to the recommendations of the IUPAC-IUB Commission on Biochemical Nomenclature) were as follows: uracil (Ura), 4.7 min; 5-azido uracil (5-AUra). […]
Following these exciting observations, a more quantitative approach to examined for differences between enzyme mutants and their enzyme kinetics with the analogs. […] Each purified enzyme was incubated with the different substrates and phosphoribosyltransferase activity was measured (FIG. 9A).

[1] = tested on: GFP-3×MT-TgUPRT HEK293T cells co-cultured with mCherry cells; assay: Co-culture RT-qPCR enrichment of GFP transcript over mCherry; assay type: cell-based
Experimental: FIGS. 10A, 10B, 100, 10D, 10E show characterizing the stringency of the 2 (5VU)-mutant TgUPRT pair. […] Cells were transfected with TgUPRT variants and incubated with 2 at 1 mM final concentration for 24h. 2 incorporation was imaged using two-step labeling (1) IEDDA using tetrazene-biotin then followed by Alexa488-streptavidin. […] Streptavidin-HRP (Strep-HRP) was used for assessment of biotin level resulting from clicked RNA, and methylene blue (MeBI) staining served as loading control. […] Cells were treated the same as in panel 10B and the RNA appended with biotin and enriched before RT RT-qPCR.
Co-culture of HEK cells containing GFP or mCherry expression plasmids: HEK293 (5×105) cells seeded in 6-well plate. Thirty-six hour post seeding, HEK cells were transfected with 1 μg of single plasmid containing EGFP, mCherry, EGFP-TgUPRT-WT, or EGFP-TgUPRT-Mut. Twenty-four hour post transfection, transiently transfected HEK cells were trypsinized and seeded into a 5 cm plate. Equal amounts of cells (approximately 2×106 in total) where 1×10^6 cells containing GFP or GFP-TgUPRT plasmids and 1×10^6 cells containing mCherry construct) were co-cultured. Three co-culture conditions are Condition (A): mCherry and EGFP, Condition (B): mCherry and EGFP-WT-TgUPRT, and Condition (C): mCherry and EGFP-3×MT-TgUPRT (pKN-CMV-EGFP-TgUPRT-Mut16 or -Mut17). […]

Row | SMILES | reactivity with the mutants (phosphoribosyltransferase activity) (mutants TgUPRT) | enrichment of GFP transcript in -UPRT cells ([1]; co-culture, RT-qPCR) | enrichment of GFP transcript, triple mutant cells compared to no UPRT cells ([1]; {}) [fold]
1 | C#Cc1c[nH]c(=O)[nH]c1=O [compound 1, 5-ethynylpyrimidine-2,4(1H,3H)-dione] | 10 IU/mg | Background enrichment | 
2 | C=Cc1c[nH]c(=O)[nH]c1=O [compound 2, 5-Vinylpyrimidine-2,4(1H,3H)-dione] | increased dramatically |  | ~100
